This is an account of results in US9862686B2, “N1-sulfonyl-5-fluoropyrimidinone derivatives” (Adama Makhteshim Ltd., priority 2009, dated 2018).

Data set [1] concerns Mycosphaerella graminicola; Anamorph: Septoria tritici; Bayer Code SEPTTR. Nature of the data set: Fungicidal activity: leaf blotch of wheat, protectant and curative treatment of inoculated wheat plants. Type of data set: in vivo. Conditions: Zymoseptoria tritici. Here is the method:
Evaluation of Fungicidal Activity: Leaf Blotch of Wheat (Mycosphaerella graminicola; Anamorph: Septoria tritici; Bayer Code SEPTTR)
Wheat plants (variety Yuma) were grown from seed in a greenhouse in 50% mineral soil/50% soil-less Metro mix until the first leaf was fully emerged, with 7-10 seedlings per pot. These plants were inoculated with an aqueous spore suspension of Septoria tritici either prior to or after fungicide treatments. After inoculation the plants were kept in 100% relative humidity (one day in a dark dew chamber followed by two to three days in a lighted dew chamber) to permit spores to germinate and infect the leaf. The plants were then transferred to a greenhouse for disease to develop.
The following table presents the activity of typical compounds of the present disclosure when evaluated in these experiments. The effectiveness of the test compounds in controlling disease was determined by assessing the severity of disease on treated plants, then converting the severity to percent control based on the level of disease on untreated, inoculated plants.
In each case of Table II the rating scale is as follows: […]

Where [2] appears, read: 24 h, One-Day Protectant (1DP), 100 ppm, wheat plants (variety Yuma), percent control vs untreated inoculated plants, read-out: SEPTTR 100 PPM 1DP (% Disease Control rating).
Where [3] appears, read: 72 h, Three-Day Curative (3DC), 100 ppm, wheat plants (variety Yuma), percent control vs untreated inoculated plants, read-out: SEPTTR 100 PPM 3DC (% Disease Control rating).

Where two headings read alike, the source gives them in different places.

As a reminder, the melting point is the temperature, or range, at which the solid turns liquid. `O=C(Nc1nc(=O)n(S(=O)(=O)c2ccc(Cl)cc2)cc1F)Oc1ccccc1`: the melting point was 192 to 195 °C. On to `CN(C)/C=N/c1nc(=O)n(S(=O)(=O)c2ccccc2)cc1F` [Cmpd 1, N′-(1-benzenesulfonyl-5-fluoro-2-oxo-1,2-dihydro-pyrimidin-4-yl)-N,N-dimethylformamidine], for which the melting point lay within 203 to 204 °C. Moreover, the pest or weed control at 100 ppm in data set [1] (setting [2]) lay in the range of 76 to 100%. Moreover, the pest or weed control at 100 ppm in data set [1] (setting [3]) lay within 76 to 100%. In turn, `CN(C)/C=N/c1nc(=O)n(S(=O)(=O)c2ccc(Cl)cc2)cc1F` [Cmpd 2, N′-[1-(4-chloro-benzenesulfonyl)-5-fluoro-2-oxo-1,2-dihydro-pyrimidin-4-yl]-N,N-dimethylformamidine] returned a melting point of 207 to 210 °C. The pest or weed control at 100 ppm in data set [1] (setting [2]) is 76 to 100%. The pest or weed control at 100 ppm in data set [1] (setting [3]) lay within 76 to 100%. The molecule `CN(C)/C=N/c1nc(=O)n(S(C)(=O)=O)cc1F` [Cmpd 3] gave a melting point of 133 to 134 °C. The pest or weed control at 100 ppm in data set [1] (setting [2]) was in the range of 76 to 100%. Moreover, in data set [1] (setting [3]), the pest or weed control at 100 ppm was 76 to 100%. Molecule `Cc1ccc(S(=O)(=O)n2cc(F)c(/N=C/N(C)C)nc2=O)cc1` [Cmpd 4] returned a melting point of 199 to 203 °C. Also, in data set [1] (setting [2]), the pest or weed control at 100 ppm lay in the range of 76 to 100%. The pest or weed control at 100 ppm in data set [1] (setting [3]) lay in the range of 76 to 100%. On to `COc1ccc(S(=O)(=O)n2cc(F)c(/N=C/N(C)C)nc2=O)cc1` [Cmpd 5], for which the melting point was 188 to 190 °C. The pest or weed control at 100 ppm in data set [1] (setting [2]) lay within 76 to 100%. In addition, in data set [1] (setting [3]), the pest or weed control at 100 ppm lay in the range of 76 to 100%.

The molecule `CCCS(=O)(=O)n1cc(F)c(/N=C/N(C)C)nc1=O` [Cmpd 6] gave a melting point of 144 to 145 °C. Besides, in data set [1] (setting [2]), the pest or weed control at 100 ppm lay in the range of 76 to 100%. Besides, the pest or weed control at 100 ppm in data set [1] (setting [3]) fell in the range of 76 to 100%.

For `Nc1nc(=O)n(S(=O)(=O)c2ccc(Cl)cc2)cc1F` [Cmpd 8, 4-amino-1-(4-chloro-benzenesulfonyl)-5-fluoro-1H-pyrimidin-2-one], the pest or weed control at 100 ppm in data set [1] (setting [2]) and in data set [1] (setting [3]) was 76 to 100% throughout. `Nc1nc(=O)n(S(=O)(=O)Cc2ccc(Cl)cc2)cc1F` [Cmpd 20]: the melting point lay within 168 to 170 °C. Same read-out and setting: the figure for `Cc1ccc(CS(=O)(=O)n2cc(F)c(N)nc2=O)cc1` [Cmpd 21] is 164 to 166 °C.

For `Cc1cc(S(=O)(=O)n2cc(F)c(N)nc2=O)ccc1Oc1ncc(C(F)(F)F)cc1Cl` [Cmpd 22], the pest or weed control at 100 ppm in data set [1] (setting [2]) and in data set [1] (setting [3]) was 76 to 100% in each case. For `CN(C)/C=N/c1nc(=O)n(S(=O)(=O)c2cn(C)cn2)cc1F` [Cmpd 28, N′-[5-fluoro-1-(1-methyl-1H-imidazole-4-sulfonyl)-2-oxo-1,2-dihydro-pyrimidin-4-yl]-N,N-dimethylformamidine], the pest or weed control at 100 ppm in data set [1] (setting [2]) lay within 26 to 50%; in data set [1] (setting [3]) it was 51 to 75%. `CN(C)/C=N/c1nc(=O)n(S(=O)(=O)Cc2ccccc2)cc1F` [Cmpd 30] showed a melting point of 152 to 154 °C. Same read-out and setting: to `CN(C)/C=N/c1nc(=O)n(S(=O)(=O)Cc2ccc(Cl)cc2)cc1F` [Cmpd 31] belongs 140 to 143 °C; to `Cc1ccc(CS(=O)(=O)n2cc(F)c(/N=C/N(C)C)nc2=O)cc1` [Cmpd 32], 150 to 152 °C. For `O=C(Nc1nc(=O)n(S(=O)(=O)c2ccccc2)cc1F)c1ccccc1` [Cmpd 33, N-(1-benzenesulfonyl-5-fluoro-2-oxo-1,2-dihydro-pyrimidin-4-yl)-benzamide], the pest or weed control at 100 ppm is 76 to 100% in data set [1] (24 h, read-out: SEPTTR 100 PPM 1DP (% Disease Control rating)) and 26 to 50% in data set [1] (72 h, read-out: SEPTTR 100 PPM 3DC (% Disease Control rating)). On to `O=C(Nc1nc(=O)n(S(=O)(=O)c2ccc(Cl)cc2)cc1F)c1ccc(Cl)cc1` [Cmpd 38, 4-chloro-N-[1-(4-chlorobenzenesulfonyl)-5-fluoro-2-oxo-1,2-dihydropyrimidin-4-yl]benzamideamide], for which the pest or weed control at 100 ppm was in the range of 76 to 100% in data set [1] (setting [2]) and 0 to 25% in data set [1] (setting [3]).

`O=C(Nc1ccccc1)Nc1nc(=O)n(S(=O)(=O)c2ccc(Cl)cc2)cc1F` [Cmpd 41] yielded a melting point of 211 to 214 °C.
